Assay results as given in patent publication US9846160B2, “Ganglioside GD2 as a marker and target on cancer stem cells” (Board of Regents, The University of Texas System, priority 2012, dated 2017).
Entries after “also recorded” stand apart in the source; their conditions may differ.

Tests used:
GD3S = conditions: melanoma cancer cell line; cited from earlier work
GD3S mRNA expression [1] = assay: GD3S mRNA expression by real-time RT-PCR in SUM159 cells; format: cell-based, Human; conditions: Sum159, 125 nM, 24 hr, dose dependent
Procedure: (§1) MDA-MB-231 cells (A) or SUM159 cells (B) (5×10^5/well) of 6 well cell culture dish was treated with 25 nM or 50 nM or 75 nM or 100 nM or 125 nM concentration of Triptolide for 24 hrs. Total RNA was extracted and GD3S expression was measured by real-time RT-PCR. (C) To measure GD2^+ cells growth inhibition, 5×10^5 MDA-MB-231 cells were plated in each well of 6 well cell culture dish and treated with 25 nM or 50 nM or 75 nM or 100 nM or 125 nM concentration of Triptolide for 48 hrs or 72 hrs. After incubation, the cells were detached with trypsin and stained with anti-GD2 antibody and Sytox-Red (for dead cells). The stained cells were analyzed on LSR-II flow cytometer. Absolute number of live cells were calculated by measuring 1000 events for True Count® beads as explained methods. […] (E) Tumors sizes from the mice in experiment in FIG. 6D were measured every week after tumor engraftment and the measurements were shown in a line graph. […] Control (n=4, black line) and Triptolide (n=4, blue line), were analyzed for cumulative survival. […]
(§2) For mRNA analysis 5×10^5 MDA-MB-231 or SUM159 breast cancer cell lines were incubated with triptolide (Alexis Biochemicals, San Diego, Calif.) at 25, 50, 75, 100 and 125 nM concentrations for 24 hrs at 37° C. in six-well cell culture dishes. […] The cells were analyzed in LSR-II flow cytometer (BD). […]

MDA-MB-231 cells [2] = assay: GD2+ cell growth inhibition / apoptosis by flow cytometry after triptolide; format: cell-based, Human
Procedure: as §1, §2

GD3S mRNA expression [3] = assay: GD3S mRNA expression by real-time RT-PCR in MDA-MB-231 cells; format: cell-based, Human
Procedure: as §1, §2

MDA-MB-231 cells [4] = assay: Tumor growth inhibition and survival, MDA-MB-231 xenografts; format: in vivo, NOD/SCID mice; conditions: for tumor growth compared to control mice: after 4 weeks; for reduction in tumor volume: in 25% of mice, 0.15 mg/kg/day
Procedure: MDA-MB-231 cells (A) or SUM159 cells (B) (5×10^5/well) of 6 well cell culture dish was treated with 25 nM or 50 nM or 75 nM or 100 nM or 125 nM concentration of Triptolide for 24 hrs. Total RNA was extracted and GD3S expression was measured by real-time RT-PCR. (C) To measure GD2^+ cells growth inhibition, 5×10^5 MDA-MB-231 cells were plated in each well of 6 well cell culture dish and treated with 25 nM or 50 nM or 75 nM or 100 nM or 125 nM concentration of Triptolide for 48 hrs or 72 hrs. After incubation, the cells were detached with trypsin and stained with anti-GD2 antibody and Sytox-Red (for dead cells). The stained cells were analyzed on LSR-II flow cytometer. Absolute number of live cells were calculated by measuring 1000 events for True Count® beads as explained methods. (D) To determine the inhibition of tumor growth, 1×10^6 MDA-MB-231 cells were subcutaneously transplanted into NOD/SCID mice (n=8, 4 mice/group). A group of the mice were treated with 0.15 mg/kg/day of triptolide and the control group was treated with PBS everyday by intra peritoneal injections. At the end of 8 weeks, mice were sacrificed, tumors were dissected out and photographed. (E) Tumors sizes from the mice in experiment in FIG. 6D were measured every week after tumor engraftment and the measurements were shown in a line graph. (F) The survival analysis was based on Kaplan-Myer estimation and groups were compared by the log-rank test. Control (n=4, black line) and Triptolide (n=4, blue line), were analyzed for cumulative survival. Survival was defined as the time (in weeks) from transplant until death. P value represents the statistical significance.
For mRNA analysis 5×10^5 MDA-MB-231 or SUM159 breast cancer cell lines were incubated with triptolide (Alexis Biochemicals, San Diego, Calif.) at 25, 50, 75, 100 and 125 nM concentrations for 24 hrs at 37° C. in six-well cell culture dishes. For the growth inhibition studies, 3×10^5 MDA-MB-231 cells cultured in a 6 well tissue culture dishes were treated with triptolide at specified concentrations for either 24 hrs or 48 hrs. After incubation the cells were detached using trypsin and stained with anti-GD2 antibody (by indirect staining protocol) and pacific-blue conjugated Annexin-V (Invitrogen, Carlsbad, Calif.) following the manufactures instructions. The cells were analyzed in LSR-II flow cytometer (BD). The absolute number of cells were counted by measuring True Count® counting beads (Invitrogen) as per manufacturer's instructions. To examine tumor growth inhibition, survival of murine tumor xenografts was determined by subcutaneous administration of 1×10^6 MDA-MB-231 cells into 8-10 week old NOD/SCID mice. After growing for 2 weeks tumor xenografts reached a size of ˜50 mm^3 Thereafter, Triptolide (0.15 mg/Kg/day) was administered IP into the mice on a daily basis. The mice were sacrificed when the control tumors reached 2 cm or higher following institutional guidelines.
After the tumors reached 50 mm^3, the mice were randomly divided into two groups, and half of the mice treated with triptolide (0.15 mg/kg/day) while the other half were treated with PBS (control mice) every day by intraperitoneal injections. […] Fifty percent of triptolide treated breast tumors were completely tumor free and there was reduction in tumor volume by >8-fold in 25% of mice (FIG. 6D). In addition, tumors in triptolide treated mice were 3-fold smaller in size and 4-fold lighter by weight (FIG. 6E, FIG. 16). […] These findings indicate that […] plays a major role in regulating […] expression and the resulting GD2^+ population. Specifically, it affects cell proliferation and tumor initiation of GD2^+ breast cancer cells and when inhibited, greatly diminishes tumor growth and increases metastasis free survival of breast cancer bearing mice.

[5] = 0.15 mg/kg/day intraperitoneal, listed as triptolide

CC(C)[C@]12O[C@H]1[C@@H]1O[C@]13[C@]1(O[C@H]1C[C@H]1C4=C(CC[C@@]13C)C(=O)OC4)[C@@H]2O [Triptolide]
inhibition of GD3S (GD3S): has been shown to inhibit GD3S
inhibition of GD3S mRNA expression (GD3S mRNA expression [1]): > 95%
decrease of GD2+ cells (absolute cell counts) (MDA-MB-231 cells [2]; MDA-MB-231, different concentrations, 24 or 48 hours): dose dependent and time dependent decrease of GD2^+ cells
induction of apoptosis (MDA-MB-231 cells [2]; breast cancer cells / MDA-MB-231): induce apoptosis in MDA-MB-231 cells; also recorded: induced apoptosis in a time dependent manner
inhibition of GD3S mRNA expression (GD3S mRNA expression [3]; MDA-MB-231, 125 nM, 24 hr, dose dependent): > 95%
inhibition of GD3S expression (GD3S mRNA expression [3]; breast cancer cells, dose dependent manner (summary)): > 95%
treated breast tumors completely tumor free (MDA-MB-231 cells [4]; 0.15 mg/kg/day intraperitoneal): Fifty
tumors lighter by weight vs control (MDA-MB-231 cells [4]; 0.15 mg/kg/day intraperitoneal): 4 fold
tumors smaller in size vs control (MDA-MB-231 cells [4]; 0.15 mg/kg/day intraperitoneal): 3 fold
tumor growth compared to control mice (MDA-MB-231 cells [4]; 0.15 mg/kg/day intraperitoneal): blocks tumor growth
tumor growth compared to control mice (MDA-MB-231 cells [4]; [5]): dramatic decrease in tumor growth
tumor mass (MDA-MB-231 cells [4]; FIG. 16, p<0.01): reduces tumor mass
reduction in tumor volume (MDA-MB-231 cells [4]; 0.15 mg/kg/day intraperitoneal): 7- to 8 fold
reduction in tumor volume (MDA-MB-231 cells [4]; [5]): > 8 fold
mice in which tumors were eliminated (MDA-MB-231 cells [4]; intra-peritoneal administration): 50%
survival of treated mice (MDA-MB-231 cells [4]; repeat experiment, Log-rank control vs triptolide p=0.0015): significantly prolonged survival
